Data on eight molecules can be found in PubChem BioAssay (NCI).

Values joined by “and” are separate entries in the source; they are usually repeats but may differ in a detail not shown here. Equal values may be shown once.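 Exposure lasted 48 hours, with cells grown in 96-well plates and compounds tested at five concentrations. GI50 marks 50% less growth. TGI marks complete inhibition of growth.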

Test systems include HL-60(TB) leukemia; MDA-MB-435; SNB-19 CNS; EKVX NSCLC; UACC-257 melanoma; HT29 colon; HCC-2998 colon; IGROV1 ovarian; ACHN renal; U251 CNS.
Common to all, as to experiment: growth of human tumour cells (NCI), 48 h

Turning to `C=CC(=O)N1CCN(c2ccc3cccc(NC(=O)c4cnc(C)cn4)c3n2)CC1`, the GI50 is 2.2 µM in the assay with HL-60(TB) leukemia; 3.67 µM with MDA-MB-435; 5.38 µM in the assay on SNB-19 CNS; 12.4 µM in the assay with EKVX NSCLC; 9.21 µM in the assay with UACC-257 melanoma; 4.05 µM in the assay on HT29 colon. Moreover, the GI50 in the assay on HCC-2998 colon is 5.32 µM; in the assay on IGROV1 ovarian, 1.29 µM; in the assay with ACHN renal, 0.656 µM; in the assay with U251 CNS, 3.85 µM. Further, the TGI in the assay with HL-60(TB) leukemia was 6.61 µM; with MDA-MB-435 it was 32.9 µM; with SNB-19 CNS, over 100 µM; with EKVX NSCLC it was over 100 µM; with UACC-257 melanoma it was 36.7 µM; in the assay with HT29 colon, over 100 µM. Also, the TGI in the assay with HCC-2998 colon was 23.6 µM; in the assay with IGROV1 ovarian it was 15.2 µM; with ACHN renal it was over 100 µM; in the assay on U251 CNS, 36.4 µM.
`O=[N+]([O-])c1cccc(-c2nc3sccn3c2-c2ccnc(NCCCNS(=O)(=O)c3cccc(F)c3)n2)c1`: the GI50 in the assay on HL-60(TB) leukemia was 2.97 µM; in the assay with MDA-MB-435 it was 2.98 µM; in the assay on SNB-19 CNS it was 4.34 µM; in the assay with EKVX NSCLC, 2.77 µM; in the assay on UACC-257 melanoma it was 2.71 µM; in the assay on HT29 colon, 3.12 µM. Moreover, the GI50 in the assay with HCC-2998 colon was 6.79 µM; in the assay on IGROV1 ovarian, 2.71 µM; in the assay with ACHN renal it was 2.19 µM; in the assay with U251 CNS it was 4.56 µM. Moreover, the TGI is 8.57 µM with HL-60(TB) leukemia; 11.6 µM in the assay with MDA-MB-435; 61.8 µM with SNB-19 CNS; 52.7 µM in the assay on EKVX NSCLC; 8.27 µM in the assay with UACC-257 melanoma; over 100 µM in the assay on HT29 colon. Moreover, the TGI is over 100 µM in the assay with HCC-2998 colon, 11.6 µM in the assay on IGROV1 ovarian, 11.2 µM with ACHN renal and 39.4 µM in the assay on U251 CNS.
Regarding `CN(C)CCCN1c2ccccc2CCc2ccc(Cl)cc21`, the GI50 in the assay on HL-60(TB) leukemia was 3.63 µM; in the assay on MDA-MB-435 it was 2.35 µM; in the assay with SNB-19 CNS, 6.42 µM; with EKVX NSCLC, 10.9 µM; in the assay with UACC-257 melanoma it was 1.84 µM; in the assay on HT29 colon, 3.38 µM. The GI50 is 1.8 µM with HCC-2998 colon, 7.09 µM with IGROV1 ovarian, 3.81 µM in the assay on ACHN renal and 3.8 µM with U251 CNS. For the same molecule, the TGI was found to be 13.2 µM in the assay on HL-60(TB) leukemia; 6.91 µM in the assay on MDA-MB-435; 21.5 µM in the assay with SNB-19 CNS; 26.4 µM in the assay on EKVX NSCLC; 3.41 µM in the assay with UACC-257 melanoma; 11.6 µM in the assay on HT29 colon. The TGI in the assay on HCC-2998 colon is 3.75 µM; with IGROV1 ovarian, 22 µM; with ACHN renal, 13.5 µM; in the assay on U251 CNS, 14.7 µM.
Regarding `C[C@]12CCC3[C@@H](CC[C@@H]4c5nonc5CC[C@]34C)C1CCC(=O)N2` (some centres not stated), the TGI in the assay on HL-60(TB) leukemia, with MDA-MB-435, with SNB-19 CNS, in the assay on EKVX NSCLC, in the assay with UACC-257 melanoma and in the assay on HT29 colon was over 100 µM in each case. In addition, the TGI with HCC-2998 colon, in the assay with IGROV1 ovarian, in the assay with ACHN renal and in the assay with U251 CNS was over 100 µM throughout. Moreover, the GI50 with MDA-MB-435 and in the assay on HCC-2998 colon was over 100 µM throughout.
In the case of `Cc1ccc(C(=O)Nc2cccc(C(F)(F)F)c2)cc1Nc1nc(-c2cccnc2)nc2c1cnn2C`, the GI50 in the assay with HL-60(TB) leukemia is 0.423 µM and 0.273 µM; in the assay with MDA-MB-435, 1.64 µM and 1.45 µM; in the assay on SNB-19 CNS it was 4.16 µM and 3.18 µM; in the assay on EKVX NSCLC, 3.22 µM and 2.59 µM; with UACC-257 melanoma, 2.02 µM and 0.875 µM; with HT29 colon, 1.48 µM and 0.488 µM. Also, the GI50 in the assay on HCC-2998 colon was 1.11 µM and 0.632 µM; in the assay on IGROV1 ovarian it was 1.74 µM and 0.851 µM; in the assay with ACHN renal, 2.13 µM and 1.08 µM; in the assay with U251 CNS, 3.66 µM and 2.9 µM. Moreover, the TGI is 3.59 µM and 3.57 µM with HL-60(TB) leukemia; 4.74 µM and 4.95 µM with MDA-MB-435; 17.1 µM and > 10 µM in the assay with SNB-19 CNS; 21.3 µM and > 10 µM in the assay with EKVX NSCLC; 8.28 µM and 4.76 µM with UACC-257 melanoma; 35.1 µM and 4.49 µM with HT29 colon. Besides, the TGI in the assay on HCC-2998 colon is 3.35 µM and 2.62 µM; with IGROV1 ovarian it was 8.71 µM and 5 µM; in the assay on ACHN renal, 11.1 µM and 7.4 µM; with U251 CNS it was 22 µM and > 10 µM.
Consider `O=C(c1ccccc1)C(CN1CCOCC1)c1ccccc1` (configuration not stated), for which the GI50 in the assay with HL-60(TB) leukemia is 1.95 µM; in the assay with MDA-MB-435 it was 1.35 µM; in the assay with SNB-19 CNS it was 3.76 µM; with EKVX NSCLC, 3.32 µM; in the assay on UACC-257 melanoma, 1.37 µM; in the assay with HT29 colon, 0.501 µM. Also, the GI50 in the assay on HCC-2998 colon is 4.36 µM; with IGROV1 ovarian it was 1.75 µM; with ACHN renal, 1.3 µM; in the assay with U251 CNS it was 1.71 µM. The TGI with HL-60(TB) leukemia stood at 5.57 µM; with MDA-MB-435, 3.36 µM; in the assay on SNB-19 CNS it was 15.6 µM; with EKVX NSCLC, 16.9 µM; in the assay on UACC-257 melanoma, 3.13 µM; in the assay with HT29 colon it was 1.89 µM. For the same molecule, the TGI with HCC-2998 colon is 15.6 µM; with IGROV1 ovarian it was 4.24 µM; with ACHN renal, 2.71 µM; with U251 CNS it was 4.09 µM.
On to `O=S(=O)(NCCNC/C=C/c1ccc(Br)cc1)c1cccc2cnccc12`, for which the GI50 was > 24.6 µM and 9.48 µM in the assay on HL-60(TB) leukemia; 9.22 µM and 12.5 µM with MDA-MB-435; 13.1 µM and 17.7 µM with SNB-19 CNS; 5.25 µM and 6.38 µM with EKVX NSCLC; 7.83 µM and 14.3 µM in the assay on UACC-257 melanoma; 5.44 µM and 13.7 µM in the assay with HT29 colon. The GI50 in the assay with HCC-2998 colon is 3.18 µM and 3.91 µM; with IGROV1 ovarian, 6.4 µM and 10.4 µM; in the assay on ACHN renal, 10.3 µM and 12.5 µM; with U251 CNS, 9.55 µM and 13.8 µM. Also, the TGI in the assay with HL-60(TB) leukemia was > 49.4 µM and 28.1 µM; with MDA-MB-435, 25.2 µM and 25.6 µM; with SNB-19 CNS, 27 µM and 34.1 µM; in the assay with EKVX NSCLC, 22.9 µM and 20.5 µM; with UACC-257 melanoma, 20.8 µM and 27.5 µM; with HT29 colon, 18.9 µM and 28.8 µM. The TGI with HCC-2998 colon was 10 µM and 14 µM; in the assay on IGROV1 ovarian, 23.2 µM and 26.4 µM; in the assay with ACHN renal, 22.8 µM and 26.2 µM; with U251 CNS, 23.9 µM and 26.7 µM.
Take `CC1=C(CCC(C)N(C)Cc2ccc(OCCCN3CCCC3)cc2)C(C)(C)CCC1` (configuration not stated): the GI50 in the assay with HL-60(TB) leukemia is 3.87 µM; with MDA-MB-435 it was 1.43 µM; in the assay on SNB-19 CNS, 3.61 µM; with EKVX NSCLC it was 9.07 µM; with UACC-257 melanoma, 2.25 µM; in the assay with HT29 colon it was 0.764 µM. The GI50 in the assay on HCC-2998 colon was 1.5 µM; in the assay with IGROV1 ovarian, 4.03 µM; in the assay on ACHN renal, 3.29 µM; in the assay on U251 CNS, 2.46 µM. In addition, the TGI with HL-60(TB) leukemia worked out at 20.4 µM; in the assay with MDA-MB-435 it was 2.85 µM; in the assay on SNB-19 CNS, 12 µM; with EKVX NSCLC, 23.2 µM; in the assay with UACC-257 melanoma, 4.12 µM; in the assay with HT29 colon, 6.94 µM. For the same molecule, the TGI with HCC-2998 colon is 4 µM; with IGROV1 ovarian, 16.6 µM; in the assay on ACHN renal, 11.3 µM; in the assay with U251 CNS it was 6.38 µM.
